The values that follow come from US20260273078A1, “AN INJECTABLE DELIVERY SYSTEM FOR LONG-ACTING ADMINISTRATION OF DRUGS” (priority 2023, published 2026).

“Also recorded” adds a separate entry of the source.

One data set addresses proteinase K (Parengyodontium album, UniProt P06873). Put plainly: Biostability after incubation with proteinase K over 28 days. The format is in vitro ADME. As to conditions: up to 28 days. From the text: L-peptide NapFFKY(p)G-OH (small circle) and D-peptide NapffkY(p)G-OH (upright triangle) are peptide-only controls that also form hydrogels in response to phosphatase enzymes.

The next data set concerns HIV. The following applies: cited from earlier work.

Chain of proteinase K (P06873 106-384): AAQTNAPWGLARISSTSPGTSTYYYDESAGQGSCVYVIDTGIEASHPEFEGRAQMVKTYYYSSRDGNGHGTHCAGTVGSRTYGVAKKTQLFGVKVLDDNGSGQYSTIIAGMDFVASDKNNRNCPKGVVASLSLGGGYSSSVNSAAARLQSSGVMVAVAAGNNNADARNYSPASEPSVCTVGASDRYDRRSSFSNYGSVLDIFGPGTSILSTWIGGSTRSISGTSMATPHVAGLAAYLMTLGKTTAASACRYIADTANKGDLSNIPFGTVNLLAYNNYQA

With “NapffkY(p)G-OH [D-peptides, reference compound]”, the “Biostability in the presence of proteinase-K (in words)” value (from here on “Biostability in the presence”) on proteinase K is “significant stability after 28 days”.

As for `Cc1cn([C@H]2C[C@H](N=[N+]=[N-])[C@@H](CO)O2)c(=O)[nH]c1=O` [zidovudine], in the data set on HIV, the IC50 range was 0.03 to 0.13 µg/mL.

On to “(NPhe)4GGGGKY(p)-OH [PP4G L-peptide variant]”, for which the “Biostability in the presence” value on proteinase K was “breaks down between days; also recorded: breaks down within days”.

As to `NCCCC[C@H](NC(=O)[C@H](Cc1ccccc1)NC(=O)[C@H](Cc1ccccc1)NC(=O)Cc1ccc2ccccc2c1)C(=O)N[C@@H](Cc1ccc(OP(=O)(O)O)cc1)C(=O)NCC(=O)O` [L-peptide, NapFFKY(p)G-OH, reference compound], on proteinase K, the “Biostability in the presence” value is recorded as “degrades rapidly, within hours”.
